Values joined by “and” are separate entries in the source; they are usually repeats but may differ in a detail not shown here. Equal entries are not always repeated. Inconclusive results and toxic doses are left out. How the source made its calls: active means survival T/C of 150% or more; inactive means T/C below 125% in these data.
Test system: CD2F1 mice, L1210 leukemia ip, survival T/C
Test: NCI In Vivo Anticancer Drug Screen. Data for tumor model L1210 Leukemia (intraperitoneal) in CD2F1 (CDF1) mice
Conditions: higher = longer survival
Summary of the method: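 Compound-dosed mice with transplantable tumor versus matched vehicle controls; endpoint ratio T/C reported.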

[1] = endpoint: mean survival time, dose: 100.0 mg/kg/injection, schedule: Q04DX003 (ip), vehicle: saline
[2] = endpoint: mean survival time, dose: 200.0 mg/kg/injection, schedule: Q04DX003 (ip), vehicle: saline
[3] = endpoint: mean survival time, dose: 400.0 mg/kg/injection, schedule: Q04DX003 (ip), vehicle: saline
[4] = endpoint: mean survival time, dose: 100.0 mg/kg/injection, schedule: Q04DX002 (ip), vehicle: saline with Tween-80
[5] = endpoint: mean survival time, dose: 200.0 mg/kg/injection, schedule: Q04DX002 (ip), vehicle: saline with Tween-80
[6] = endpoint: mean survival time, dose: 400.0 mg/kg/injection, schedule: Q04DX002 (ip), vehicle: saline with Tween-80
[7] = endpoint: mean survival time, dose: 100.0 mg/kg/injection, schedule: Q01DX009 (ip), vehicle: saline with Tween-80
[8] = endpoint: mean survival time, dose: 200.0 mg/kg/injection, schedule: Q01DX009 (ip), vehicle: saline with Tween-80
[9] = endpoint: mean survival time, dose: 100.0 mg/kg/injection, schedule: Q04DX003 (ip), vehicle: saline with Tween-80
[10] = endpoint: mean survival time, dose: 200.0 mg/kg/injection, schedule: Q04DX003 (ip), vehicle: saline with Tween-80
[11] = endpoint: mean survival time, dose: 400.0 mg/kg/injection, schedule: Q04DX003 (ip), vehicle: saline with Tween-80
[12] = endpoint: mean survival time, dose: 100.0 mg/kg/injection, schedule: Q01DX001 (ip), vehicle: saline with Tween-80
[13] = endpoint: mean survival time, dose: 200.0 mg/kg/injection, schedule: Q01DX001 (ip), vehicle: saline with Tween-80
[14] = endpoint: mean survival time, dose: 400.0 mg/kg/injection, schedule: Q01DX001 (ip), vehicle: saline with Tween-80

Measured: T/C

CN1C(=O)[N+](C)(C)N=C1[O-]
inactive: [1] 94 % of control | [2] 97 % of control | [3] 95 % of control

CC(C(=O)O)C1CCC2(C)CCC(=O)C(C)(Cl)C2(O)C1=O (stereo not drawn)
inactive: [4] 96 % of control | [5] 100 % of control | [6] 100 % of control

C[n+]1ccccc1/C=C/c1cccc([N+](=O)[O-])c1
inactive: endpoint: mean survival time, dose: 5.0 mg/kg/injection, schedule: Q01DX009 (ip), vehicle: saline with Tween-80 100 % of control | endpoint: mean survival time, dose: 10.0 mg/kg/injection, schedule: Q01DX009 (ip), vehicle: saline with Tween-80 105 % of control | endpoint: mean survival time, dose: 20.0 mg/kg/injection, schedule: Q01DX009 (ip), vehicle: saline with Tween-80 107 % of control

CC(=O)c1ccc(-c2ccccc2)cc1
inactive: endpoint: mean survival time, dose: 100.0 mg/kg/injection, schedule: Q04DX003 (ip), vehicle: Klucel (hydroxypropylcellulose) (HPC) 102 % of control | endpoint: mean survival time, dose: 200.0 mg/kg/injection, schedule: Q04DX003 (ip), vehicle: Klucel (hydroxypropylcellulose) (HPC) 103 % of control | endpoint: mean survival time, dose: 400.0 mg/kg/injection, schedule: Q04DX003 (ip), vehicle: Klucel (hydroxypropylcellulose) (HPC) 102 % of control

O=C([O-])CC[n+]1ccn(CCC(=O)O)c1
inactive: [1] 109 % of control | [2] 103 % of control | [3] 111 % of control

O=C(OCC(F)(F)F)C(Cl)(Cl)Cl
inactive: endpoint: mean survival time, dose: 75.0 mg/kg/injection, schedule: Q01DX001 (ip), vehicle: saline 97 % of control | endpoint: mean survival time, dose: 150.0 mg/kg/injection, schedule: Q01DX001 (ip), vehicle: saline 107 % of control | endpoint: mean survival time, dose: 300.0 mg/kg/injection, schedule: Q01DX001 (ip), vehicle: saline 107 % of control

CCC1(O)C(=O)OCc2c1cc1n(c2=O)Cc2cc3ccc(CN)cc3nc2-1 (stereo not drawn)
inactive: endpoint: median survival time, dose: 10.0 mg/kg/injection, schedule: Q04DX002 (ip), vehicle: saline with Tween-80 109 % of control | endpoint: median survival time, dose: 10.0 mg/kg/injection, schedule: Q04DX002 (ip), vehicle: water 102 % of control | endpoint: median survival time, dose: 20.0 mg/kg/injection, schedule: Q04DX002 (ip), vehicle: saline with Tween-80 109 % of control | endpoint: median survival time, dose: 20.0 mg/kg/injection, schedule: Q04DX002 (ip), vehicle: water 102 % of control | endpoint: median survival time, dose: 40.0 mg/kg/injection, schedule: Q04DX002 (ip), vehicle: saline with Tween-80 106 % of control | endpoint: median survival time, dose: 40.0 mg/kg/injection, schedule: Q04DX002 (ip), vehicle: water 107 % of control | endpoint: median survival time, dose: 80.0 mg/kg/injection, schedule: Q04DX002 (ip), vehicle: saline with Tween-80 113 % of control | endpoint: median survival time, dose: 80.0 mg/kg/injection, schedule: Q04DX002 (ip), vehicle: water 108 % of control

CC(C)c1nc(-c2ccccc2)c(-c2ccccc2)[nH]1
inactive: [7] 103 % of control | [8] 94 % of control | endpoint: mean survival time, dose: 400.0 mg/kg/injection, schedule: Q01DX009 (ip), vehicle: saline with Tween-80 100 % of control

CC(=O)[CH-]C(C)=O.O=[N+]([O-])O.[NH-]C1CCCCC1[NH-].[Pt+4] (stereo not drawn)
inactive: endpoint: mean survival time, dose: 1.25 mg/kg/injection, schedule: Q04DX003 (ip), vehicle: water 95 % of control | endpoint: mean survival time, dose: 2.5 mg/kg/injection, schedule: Q04DX003 (ip), vehicle: water 98 % of control | endpoint: mean survival time, dose: 5.0 mg/kg/injection, schedule: Q04DX003 (ip), vehicle: water 98 % of control | endpoint: mean survival time, dose: 10.0 mg/kg/injection, schedule: Q04DX003 (ip), vehicle: water 110 % of control

CC1CC(C)(C)N=C(CCNCc2ccccc2)O1 (stereo not drawn)
inactive: endpoint: mean survival time, dose: 6.25 mg/kg/injection, schedule: Q01DX001 (ip), vehicle: saline 95 % of control | endpoint: mean survival time, dose: 12.5 mg/kg/injection, schedule: Q01DX001 (ip), vehicle: saline 110 % of control | endpoint: mean survival time, dose: 25.0 mg/kg/injection, schedule: Q01DX001 (ip), vehicle: saline 103 % of control

COc1c(NC(=O)Nc2ccccc2C)cccc1[N+](=O)[O-]
inactive: endpoint: mean survival time, dose: 50.0 mg/kg/injection, schedule: Q04DX002 (ip), vehicle: saline with Tween-80 94 % of control | [4] 90 % of control and 96 % of control

CCOC(=O)C1CNC(=O)C1=O (stereo not drawn)
inactive: endpoint: mean survival time, dose: 100.0 mg/kg/injection, schedule: Q01DX001 (ip), vehicle: saline 106 % of control | [9] 100 % of control | endpoint: mean survival time, dose: 200.0 mg/kg/injection, schedule: Q01DX001 (ip), vehicle: saline 110 % of control | [10] 101 % of control | endpoint: mean survival time, dose: 400.0 mg/kg/injection, schedule: Q01DX001 (ip), vehicle: saline 106 % of control | [11] 95 % of control

O=C(SCCNCCNC1CC2CCC1C2)c1ccccc1 (stereo not drawn)
inactive: endpoint: mean survival time, dose: 9.4 mg/kg/injection, schedule: Q01DX009 (ip), vehicle: saline with Tween-80 98 % of control | endpoint: mean survival time, dose: 9.4 mg/kg/injection, schedule: Q04DX003 (ip), vehicle: saline with Tween-80 95 % of control | endpoint: mean survival time, dose: 18.8 mg/kg/injection, schedule: Q01DX001 (ip), vehicle: saline 97 % of control | endpoint: mean survival time, dose: 18.8 mg/kg/injection, schedule: Q01DX009 (ip), vehicle: saline with Tween-80 97 % of control | endpoint: mean survival time, dose: 18.8 mg/kg/injection, schedule: Q04DX003 (ip), vehicle: saline with Tween-80 92 % of control | endpoint: mean survival time, dose: 37.5 mg/kg/injection, schedule: Q01DX001 (ip), vehicle: saline 100 % of control | endpoint: mean survival time, dose: 37.5 mg/kg/injection, schedule: Q01DX009 (ip), vehicle: saline with Tween-80 97 % of control | endpoint: mean survival time, dose: 37.5 mg/kg/injection, schedule: Q04DX003 (ip), vehicle: saline with Tween-80 95 % of control

CC(C)(C)OC(=O)NC(Cc1c[nH]c2ccccc12)C(=O)ON1C(=O)CCC1=O (stereo not drawn)
inactive: [9] 95 % of control | [10] 95 % of control

CC1C2OC2C(C)S1(=O)=O (stereo not drawn)
inactive: [12] 100 % of control | [4] 93 % of control | [13] 101 % of control | [5] 101 % of control | [14] 101 % of control | [6] 89 % of control

Nc1cncc([N+](=O)[O-])c1N
inactive: [12] 98 % of control | [13] 101 % of control | [14] 101 % of control

CCCC(=O)Nc1ncnc2c1[nH]c(=O)n2C1OC2COP(=O)(O)OC2C1O (stereo not drawn)
inactive: endpoint: mean survival time, dose: 6.25 mg/kg/injection, schedule: Q01DX005 (ip), vehicle: water 97 % of control | endpoint: mean survival time, dose: 12.5 mg/kg/injection, schedule: Q01DX005 (ip), vehicle: water 97 % of control | endpoint: mean survival time, dose: 25.0 mg/kg/injection, schedule: Q01DX005 (ip), vehicle: water 93 % of control | endpoint: mean survival time, dose: 50.0 mg/kg/injection, schedule: Q01DX005 (ip), vehicle: water 93 % of control | endpoint: mean survival time, dose: 100.0 mg/kg/injection, schedule: Q01DX005 (ip), vehicle: water 95 % of control

O=C(O)CC1(c2ccccc2)OC(=O)c2ccccc21 (stereo not drawn)
inactive: [12] 91 % of control | [7] 96 % of control | [13] 94 % of control | [8] 100 % of control | [14] 89 % of control

COc1cc(C2c3cc4c(cc3CC3COC(=O)C32)OCO4)cc(OC)c1O (stereo not drawn)
inactive: endpoint: mean survival time, dose: 0.5 mg/kg/injection, schedule: Q01DX009 (ip), vehicle: saline with Tween-80 91 % of control | endpoint: mean survival time, dose: 1.0 mg/kg/injection, schedule: Q01DX009 (ip), vehicle: saline with Tween-80 100 % of control | endpoint: mean survival time, dose: 2.0 mg/kg/injection, schedule: Q01DX009 (ip), vehicle: saline with Tween-80 112 % of control | endpoint: mean survival time, dose: 4.0 mg/kg/injection, schedule: Q01DX009 (ip), vehicle: saline with Tween-80 100 % of control

CN/N=C1\CCC2(C)C(CCC3C4CCC(O)C4(C)CCC32)C1 (stereo not drawn)
inactive: endpoint: mean survival time, dose: 12.5 mg/kg/injection, schedule: Q01DX009 (ip), vehicle: Klucel (hydroxypropylcellulose) (HPC) 88 % of control | endpoint: mean survival time, dose: 25.0 mg/kg/injection, schedule: Q01DX009 (ip), vehicle: Klucel (hydroxypropylcellulose) (HPC) 89 % of control | endpoint: mean survival time, dose: 50.0 mg/kg/injection, schedule: Q01DX009 (ip), vehicle: Klucel (hydroxypropylcellulose) (HPC) 91 % of control and 105 % of control

COc1nc(NC2OCC(O)C(O)C2O)c(C(C)=O)c(=O)n1C (stereo not drawn)
inactive: endpoint: median survival time, dose: 12.5 mg/kg/injection, schedule: Q01DX005 (ip), vehicle: saline with Tween-80 91 % of control | endpoint: median survival time, dose: 25.0 mg/kg/injection, schedule: Q01DX005 (ip), vehicle: saline with Tween-80 98 % of control | endpoint: median survival time, dose: 50.0 mg/kg/injection, schedule: Q01DX005 (ip), vehicle: saline with Tween-80 97 % of control | endpoint: median survival time, dose: 100.0 mg/kg/injection, schedule: Q01DX005 (ip), vehicle: saline with Tween-80 96 % of control | endpoint: median survival time, dose: 200.0 mg/kg/injection, schedule: Q01DX005 (ip), vehicle: saline with Tween-80 96 % of control

CCCCC[CH2][Sn](=[O])[CH2]CCCCC
inactive: [9] 100 % of control | [10] 97 % of control | [11] 111 % of control

Reference: PubChem BioAssay AID256 (DTP/NCI, 2004)
